Laboratory results as given in paper PMC11595864, “Design, Synthesis, and Evaluation of Novel Thiazole-Containing Algicides Inspired by Bacillamide A” (Marine Drugs, 2024).
Values after ≈ are worked out from the molar mass of the structure shown.

Columns and labels:
[1] = tested on: S. costatum; test: Algicidal activity assay, EC50; format: cell-based, Skeletonema costatum; settings: for EC50: Skeletonema costatum, Mean ± SD, n = 3, read-out: EC50 S. costatum
Procedure: (§1) P. minimum, A. pacificum, and S. costatum were purchased from Guangyu Biological Technology Co., Ltd. (Shanghai, China). The algae strain was cultured in F/2 medium ((12 h light: 12 h dark cycle), 20 ± 1 °C, 70 μmol m^−2 s^−1). Purchased algae were transferred to sterile conical flasks for culture; after the algae proliferation was stabilized, the expanded culture was next carried out following standard conditions.
(§2) Copper sulfate and Diuron were used as the positive controls. EC50 values were calculated according to the equation of the quantity–effect relationship in Equation (2) using the Hill model of Graph Pad Prism software (8.0.2). (2) Y=Bottom+(Top-Bottom)/1+10^(Log EC50-X)×Hill Slope
(§3) The X and Y values represent the concentration (mg/L) and response values of the control and experimental groups, respectively. The Top, Bottom, and Hill Slope represent the maximum response, minimum response, and the curve slope, respectively. The EC50 represents half of the maximum effective concentration.

[2] = tested on: A. pacificum; test: Algicidal activity assay, EC50; format: cell-based, Alexandrium pacificum; settings: for EC50: Alexandrium pacificum, Mean ± SD, n = 3
Procedure: as §1, §2, §3

[3] = tested on: P. minimum; test: Algicidal activity assay, EC50; format: cell-based, Prorocentrum minimum; settings: for EC50: Prorocentrum minimum, Mean ± SD, n = 3, read-out: EC50 P. minimum
Procedure: as §1, §2, §3

[4] = tested on: S. costatum; test: Growth-inhibition rate measurement at 50 mg/L, 24 h; format: cell-based, Skeletonema costatum; settings: for inhibition at 50 µg/mL: Skeletonema costatum, read-out: inhibition rate against S. costatum
Procedure: as §1
(§4) The stock solutions of bacillamide A and different BDs were prepared in dimethyl sulfoxide (DMSO) with the requisition amount. […] The controls received the same volume of DMSO. The inhibitory activities of bacillamide A, different BDs, and positive controls were screened by 96 well microtiter plates at different concentrations. Inhibition ratios (IRs) of cupric sulfate (50 mg/L, positive control), bacillamide A (50 mg/L), and BDs (50 mg/L) were calculated on algae using Equation (1). (1) IR=Cc0-Cex/Cc0×100%
(§5) The CC0 and Cex, respectively, represent the algal densities of the control and experimental groups.

[5] = tested on: A. pacificum; test: as above; format: cell-based, Alexandrium pacificum; settings: Alexandrium pacificum, read-out: inhibition rate against A. pacificum
Procedure: as §1, §4, §5

[6] = tested on: zebrafish; test: Zebrafish acute toxicity assay; format: in vivo; settings: for Survival percent: zebrafish
Procedure: Zebrafish acute toxicity of bacillamide A and synthesized BDs were evaluated at 0.1 mg/L, 1 mg/L, and 10 mg/L, respectively. Diuron and CuSO4 were used as positive controls. The commercial zebrafish (body length > 3.0 cm) were domesticated in aerated tap water for 24 h, fed once daily for seven consecutive days, and stopped being fed before the experiment.
4. Acute toxicity table S1.
Compound Concentration Survival percent Acute
aAccording to the Guide for Environmental Safety Assessment of Chemical Pesticides
4 groups and treated with different compounds for 96 h.

[7] = tested on: P. minimum; test: Growth-inhibition rate measurement at 50 mg/L, 24 h; format: cell-based, Prorocentrum minimum; settings: Prorocentrum minimum, read-out: inhibition rate against P. minimum
Procedure: as §1, §4, §5

[8] = tested on: S. costatum; test: Observation of cellular morphology (optical microscope, SEM); format: cell-based, Skeletonema costatum; settings: 10 mg/L, 4 h
Procedure: (§6) There were morphological changes of algae cells treated by bacillamide A, BDs, and the positive control (CuSO4). […] Cell samples were centrifuged at 12,000 rpm for 10 min, collected, fixed, gradient-dehydrated, and freeze-dried after gold coating following the reported procedure. The SEM analyses were performed by scanning electron microscopy (SEM, JSM-7900F, […], Tokyo, Japan).

[9] = tested on: P. minimum; test: as above; format: cell-based, Prorocentrum minimum; settings: 10 mg/L, 4 h
Procedure: as §6

[10] = tested on: A. pacificum; test: Observation of cellular morphology (optical microscope); format: cell-based, Alexandrium pacificum; settings: 10 mg/L, 4 h
[11] = tested on: PSII in P. minimum; test: Quantum yield Fv/Fm of PSII; format: cell-based, Prorocentrum minimum; settings: 10 mg/L, 72 h, versus negative control
Procedure: (§7) P. minimum, S. costatum, and A. pacificum cells were cultured in F/2 medium. All flasks were cultivated under 12 h of light: 12 h of dark and 70 μmol m^−2 s^−1 at 20 ± 1 °C. […] Finally, the algal cells were collected and diluted in 6 mL of phosphate buffer (pH = 7.8). A small amount of quartz sand was added into the algal cells under ice bath. The obtained homogenate was next poured into a centrifuge tube and centrifuged at 5000 r/min for 25 min at 4 °C. The obtained supernatant was placed in the refrigerator at 4 °C for the next step experiment.
(§8) Fv/Fm values were determined by using AquaPen handheld algae fluorescence meter (Nanjing Mingao Instrument Co., Ltd., Nanjing, China). The algae cells were darkened for 30 min and Fv/Fm values were measured.

[12] = tested on: PSII in S. costatum; test: Quantum yield Fv/Fm of PSII; format: cell-based, Skeletonema costatum; settings: 10 mg/L, 72 h, versus negative control
Procedure: as §7, §8

[13] = tested on: P. minimum; test: ROS level (DCFH-DA fluorescent probe assay); format: cell-based, Prorocentrum minimum; settings: 10 mg/L, 72 h
Procedure: as §7
(§9) The reactive oxygen species (ROS) assay kit was purchased from SolarBio Co., Ltd., Beijing, China. The 2′,7′-dichlorodihydrofluorescein diacetate (DCFH-DA) could be oxidized by reactive oxygen or nitrogen species (ROS/RNS) to generate high fluorescent 2′,7′-dichlorofluoroscein (DCF). DCF could be detected by Cyto-FLEX flow cytometry.

[14] = tested on: S. costatum; test: ROS level (DCFH-DA fluorescent probe assay); format: cell-based, Skeletonema costatum; settings: 10 mg/L, 72 h
Procedure: as §7, §9

[15] = tested on: P. minimum; test: MDA level (thiobarbituric acid assay kit); format: cell-based, Prorocentrum minimum; settings: 10 mg/L, 72 h, versus control (DMSO)
Procedure: as §7
(§10) The malondialdehyde (MDA) assay kit was purchased from Lvyuandade Biochemical Co, Ltd., Beijing, China. The MDA parameter was monitored according to the procedure provided by the manufacturer. A total of 1 mL of algal extract was mixed with thiobarbituric acid solution (2 mL, 0.6%). The solution was sealed and kept in a boiling water bath for 15 min, followed by being cooled and centrifuged at 4500 r/min for 10 min. The absorbance values of collected supernatant were measured and calculated by the Formula (3) at 600 nm, 532 nm, and 450 nm:MDA content (nmol∙mgprot^−1) = 6.45 × (A532 − A600) − 0.56 × A450(3)

[16] = tested on: S. costatum; test: MDA level (thiobarbituric acid assay kit); format: cell-based, Skeletonema costatum; settings: 10 mg/L, 72 h, versus control (DMSO)
Procedure: as §7, §10

Structure (SMILES) | EC50 [1] | EC50 [2] | EC50 [3] | inhibition at 50 µg/mL [4] | inhibition at 50 µg/mL [5] | Survival percent ([6]; 0.1 mg/L, 0h) | Survival percent ([6]; 0.1 mg/L, 24h) | Survival percent ([6]; 0.1 mg/L, 48h) | Survival percent ([6]; 0.1 mg/L, 72h) | Survival percent ([6]; 0.1 mg/L, 96h) | Survival percent ([6]; 1 mg/L, 0h) | Survival percent ([6]; 1 mg/L, 24h) | Survival percent ([6]; 1 mg/L, 48h) | Survival percent ([6]; 1 mg/L, 72h) | Survival percent ([6]; 1 mg/L, 96h) | Survival percent ([6]; 10 mg/L, 0h) | Survival percent ([6]; 10 mg/L, 24h) | Survival percent ([6]; 10 mg/L, 48h) | melting point | inhibition at 50 µg/mL [7] | other results
O=C(NCCc1c[nH]c2ccccc12)c1csc(-c2ccccc2)n1 [Compound 6a] | 0.11 ± 0.02 µg/mL (≈ 0.317 µM) | 3.32 ± 0.79 µg/mL (≈ 9.56 µM) | 1.74 ± 0.4 µg/mL (≈ 5.01 µM) | > 70% | 70 to 95% | 100 | 100 | 100 | 100 | 100 | 100 | 83 | 80 | 80 | 73 | 100 | 0 | 0 |  |  | fold more potent than CuSO4 ([1]; from EC50 against S. costatum): 28 fold; fold more potent than Diuron ([1]; from EC50 against S. costatum): 39 fold; fold more potent than bacillamide A ([1]; from EC50 against S. costatum): 23 fold; Survival percent ([6]; 10 mg/L, 72h): 0; Survival percent ([6]; 10 mg/L, 96h): 0
O=C(NCCc1c[nH]c2ccccc12)c1csc(-c2ccccc2[N+](=O)[O-])n1 [Compound 6b] |  |  |  |  |  |  |  |  |  |  |  |  |  |  |  |  |  |  | 122 to 123 °C |  | 
CCOc1ccc(-c2nc(C(=O)NCCc3c[nH]c4ccccc34)cs2)cc1 [Compound 6c] | 0.51 ± 0.04 µg/mL (≈ 1.3 µM) | 2.43 ± 0.42 µg/mL (≈ 6.21 µM) | 1.29 ± 0.08 µg/mL (≈ 3.3 µM) | > 70% |  |  |  |  |  |  |  |  |  |  |  |  |  |  | 184 to 185 °C | 70.8% | inhibition rate against S. costatum [4]: 72.6%
O=C(NCCc1c[nH]c2ccccc12)c1csc(-c2cccs2)n1 [Compound 6e] |  |  |  |  |  |  |  |  |  |  |  |  |  |  |  |  |  |  | 189 to 190 °C |  | 
CCCCc1nc(C(=O)NCCc2c[nH]c3ccccc23)cs1 [Compound 6j] | 0.3 ± 0.02 µg/mL (≈ 0.916 µM) | 0.47 ± 0.25 µg/mL (≈ 1.44 µM) | 1 ± 0.11 µg/mL (≈ 3.05 µM) | > 70% | 70 to 95% | 100 | 100 | 100 | 100 | 100 | 100 | 100 | 100 | 80 | 80 | 100 | 80 | 0 |  | 71.9% | fold more potent than natural bacillamide A, Diuron, and CuSO4 ([2]; from EC50 against A. pacificum): 3–5 fold; fold more potent than natural bacillamide A, Diuron, and CuSO4 ([3]; from EC50 against P. minimum): 3–5 fold; inhibition rate against S. costatum [4]: 81.7%; mortality in zebrafish ([6]; 10 mg/L, treatment for more than 48 h): 100%; Survival percent ([6]; 10 mg/L, 72h): 0; Survival percent ([6]; 10 mg/L, 96h): 0; cell morphology of S. costatum, micrographs [8]: broken or damaged or both; cell morphology of P. minimum, micrographs [9]: broken or damaged or both; cell morphology of A. pacificum, micrographs [10]: broken or damaged or both; decrease of Fv/Fm of PSII in P. minimum [11]: 3 fold; decrease of quantum yield Fv/Fm of PSII in S. costatum [12]: 27 fold; increase of ROS levels in P. minimum [13]: 5.4 fold; increase of ROS levels in S. costatum [14]: 3 fold; increase of MDA levels in P. minimum [15]: 2.3 fold; increase of MDA levels in S. costatum [16]: 2.2 fold
COc1ccc2[nH]cc(CCNC(=O)c3csc(-c4ccccc4)n3)c2c1 [Compound 7b] | 0.37 ± 0.07 µg/mL (≈ 0.98 µM) | 0.72 ± 0.021 µg/mL (≈ 1.91 µM) | 1.32 ± 0.38 µg/mL (≈ 3.5 µM) |  |  |  |  |  |  |  |  |  |  |  |  |  |  |  | 164 to 165 °C | 82.3% | 
